Consider 17 compounds from ChEMBL document CHEMBL1145105, “Synthesis and benzodiazepine receptor affinity of pyrazolo[1,5-a]pyrimidine derivatives. 3. New 6-(3-thienyl) series as alpha 1 selective ligands” (J Med Chem, 2003).

Several values for one entry are separate records, joined by “and”; a condition that tells them apart may be missing. Equal entries are not always repeated.

The test system of test [1] is Mus musculus. Kind of test: Synergic sedative effect was tested in mice using the Hole Board test at peroral dose of 10 mg/kg, value was expressed in plane. Format: functional. The conditions noted are these: route oral.
Test [2] concerns Mus musculus. Kind of test: Percent anticonvulsant activity against PTZ induced attack in mice at dose of 10 mg/kg. Format: functional.
Test [3] concerns Mus musculus. Kind of test: Synergic sedative effect was tested in mice using the Hole Board test at peroral dose of 10 mg/kg, value was expressed in holes. Format: functional. The conditions noted are these: route oral.
Test [4] deals with Mus musculus. The experiment in a line: Muscle relaxant effect in mice at dose of 10 mg/kg using rotarod test, value was expressed as no. of falls in 30 seconds. Format: functional. For orientation: In the rotarod test animals must keep their balance on a rotating rod.
Test [5] addresses T1, GABA-A receptor; anion channel (Bos taurus) (UniProt P10063+P08220+P20237+P08219+P10064+P22300). Kind of test: Percent inhibition of [3H]Ro-151788 binding to bovine brain GABA-A central benzodiazepine receptor at 0.2 nM.
In test [6] the target is GABA-A receptor; anion channel. The experiment in a line: Inhibition of [3H]Ro-151788 binding to GABA-A central benzodiazepine receptor of bovine brain membranes. The test is classed as cell membranes, Bos taurus.
Test [7] deals with T1, GABA-A receptor; anion channel (Bos taurus). The experiment in a line: Relative binding to GABA-A receptor in the presence and absence of GABA (GABA shift), Ki(-GABA)/Ki(+GABA). The test is classed as protein-complex assay.
The target in test [8] is T2, GABA A receptor alpha-2/beta-2/gamma-2 (Rattus norvegicus, UniProt P18508+P23576+P63138). The experiment in a line: Binding affinity for recombinant rat alpha-2-beta-2-gamma-2 GABA-A receptor subunits expressed in HEK293 cells. Format: cell-based.
T2 sequence (P18508 whole entry): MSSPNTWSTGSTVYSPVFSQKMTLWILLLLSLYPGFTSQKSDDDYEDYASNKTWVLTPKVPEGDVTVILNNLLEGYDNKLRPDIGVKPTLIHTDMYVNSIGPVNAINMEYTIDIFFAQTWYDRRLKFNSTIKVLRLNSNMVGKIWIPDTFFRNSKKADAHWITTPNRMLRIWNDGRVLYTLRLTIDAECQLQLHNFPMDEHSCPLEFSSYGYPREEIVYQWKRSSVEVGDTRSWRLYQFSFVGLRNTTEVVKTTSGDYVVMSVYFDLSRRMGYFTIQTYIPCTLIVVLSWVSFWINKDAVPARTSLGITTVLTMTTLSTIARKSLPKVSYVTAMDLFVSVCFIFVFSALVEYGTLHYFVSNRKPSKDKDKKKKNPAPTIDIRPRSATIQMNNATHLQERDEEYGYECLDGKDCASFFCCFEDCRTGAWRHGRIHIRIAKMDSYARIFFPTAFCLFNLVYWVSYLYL
T2 sequence (P23576 whole entry): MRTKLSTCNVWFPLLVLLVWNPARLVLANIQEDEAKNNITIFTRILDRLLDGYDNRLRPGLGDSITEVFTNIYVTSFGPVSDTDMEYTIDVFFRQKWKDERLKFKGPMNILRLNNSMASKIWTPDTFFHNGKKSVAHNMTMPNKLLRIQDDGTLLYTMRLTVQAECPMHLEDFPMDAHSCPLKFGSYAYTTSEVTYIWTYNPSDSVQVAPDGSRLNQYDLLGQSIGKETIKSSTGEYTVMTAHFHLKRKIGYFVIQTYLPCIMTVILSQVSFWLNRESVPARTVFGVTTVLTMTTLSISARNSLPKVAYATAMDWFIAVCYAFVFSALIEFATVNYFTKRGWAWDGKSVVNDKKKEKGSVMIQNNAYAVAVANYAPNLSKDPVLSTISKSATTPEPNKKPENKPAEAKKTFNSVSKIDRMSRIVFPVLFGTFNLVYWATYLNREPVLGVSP
T2 sequence (P63138 whole entry): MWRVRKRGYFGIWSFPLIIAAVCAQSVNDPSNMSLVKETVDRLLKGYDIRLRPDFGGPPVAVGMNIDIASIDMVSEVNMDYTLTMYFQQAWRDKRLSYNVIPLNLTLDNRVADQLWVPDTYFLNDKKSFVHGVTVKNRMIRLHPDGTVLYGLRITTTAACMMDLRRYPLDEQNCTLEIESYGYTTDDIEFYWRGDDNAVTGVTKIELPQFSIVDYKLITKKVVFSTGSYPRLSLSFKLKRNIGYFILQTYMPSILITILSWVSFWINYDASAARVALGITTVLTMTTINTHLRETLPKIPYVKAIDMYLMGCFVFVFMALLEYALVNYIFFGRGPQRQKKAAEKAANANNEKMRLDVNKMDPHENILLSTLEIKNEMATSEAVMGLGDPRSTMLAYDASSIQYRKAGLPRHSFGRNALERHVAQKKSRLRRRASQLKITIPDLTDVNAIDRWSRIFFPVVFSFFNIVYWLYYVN
Test [9] concerns the target GABA A receptor alpha-5/beta-3/gamma-2 (Rattus norvegicus, UniProt P18508+P19969+P63079). Kind of test: Binding affinity for recombinant rat GABA-A receptor alpha-5-beta-3-gamma-2 subunits expressed in HEK 293 cells. Format: cell-based, HEK293.
In test [10] the target is GABA-A receptor; alpha-1/beta-2/gamma-2 (Rattus norvegicus, UniProt P18508+P62813+P63138). The experiment in a line: Binding affinity for recombinant rat GABA-A receptor alpha-1-beta-2-gamma-2 subunits expressed in HEK293 cells. The test is classed as cell-based.
Sequence of GABA-A receptor; alpha-1/beta-2/gamma-2 (P18508 whole entry): as the sequence (P18508 whole entry) above
Sequence of GABA-A receptor; alpha-1/beta-2/gamma-2 (P62813 whole entry): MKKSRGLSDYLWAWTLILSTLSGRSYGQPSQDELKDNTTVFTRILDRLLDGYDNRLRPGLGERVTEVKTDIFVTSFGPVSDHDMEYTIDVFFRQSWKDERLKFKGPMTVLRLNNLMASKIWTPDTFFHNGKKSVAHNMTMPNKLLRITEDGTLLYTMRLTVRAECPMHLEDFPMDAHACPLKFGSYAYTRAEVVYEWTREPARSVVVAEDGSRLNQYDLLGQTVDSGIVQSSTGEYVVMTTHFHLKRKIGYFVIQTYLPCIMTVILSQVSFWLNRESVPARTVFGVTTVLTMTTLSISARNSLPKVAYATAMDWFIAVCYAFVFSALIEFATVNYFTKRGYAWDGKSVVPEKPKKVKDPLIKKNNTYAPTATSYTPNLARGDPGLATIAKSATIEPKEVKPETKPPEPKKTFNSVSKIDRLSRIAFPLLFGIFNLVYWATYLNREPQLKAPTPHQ
Sequence of GABA-A receptor; alpha-1/beta-2/gamma-2 (P63138 whole entry): as the sequence (P63138 whole entry) above
Test [11] relates to Mus musculus. The experiment in a line: Antianxiety activity was tested in mice at dose of 10 mg/kg in light. Format: functional.
Test [12] deals with T2, GABA A receptor alpha-2/beta-2/gamma-2. The experiment in a line: Binding affinity for recombinant rat GABA-A receptor alpha-2-beta-2-gamma-2 subunits expressed in HEK293 cells. The test is classed as cell-based.
Test [13] deals with Mus musculus. The experiment in a line: Muscle relaxant effect in mice at dose of 30 mg/kg using rotarod test, value was expressed as no. of falls in 30 seconds. The test is classed as functional.
Test [14] deals with GABA A receptor alpha-3/beta-2/gamma-2 (Rattus norvegicus, UniProt P18508+P20236+P63138). The experiment in a line: Binding affinity for recombinant rat GABA-A receptor alpha-3-beta-2-gamma-2 subunits expressed in HEK293 cells. The test is classed as cell-based.
Sequence of GABA A receptor alpha-3/beta-2/gamma-2 (P18508 whole entry): as the sequence (P18508 whole entry) above
Sequence of GABA A receptor alpha-3/beta-2/gamma-2 (P20236 whole entry): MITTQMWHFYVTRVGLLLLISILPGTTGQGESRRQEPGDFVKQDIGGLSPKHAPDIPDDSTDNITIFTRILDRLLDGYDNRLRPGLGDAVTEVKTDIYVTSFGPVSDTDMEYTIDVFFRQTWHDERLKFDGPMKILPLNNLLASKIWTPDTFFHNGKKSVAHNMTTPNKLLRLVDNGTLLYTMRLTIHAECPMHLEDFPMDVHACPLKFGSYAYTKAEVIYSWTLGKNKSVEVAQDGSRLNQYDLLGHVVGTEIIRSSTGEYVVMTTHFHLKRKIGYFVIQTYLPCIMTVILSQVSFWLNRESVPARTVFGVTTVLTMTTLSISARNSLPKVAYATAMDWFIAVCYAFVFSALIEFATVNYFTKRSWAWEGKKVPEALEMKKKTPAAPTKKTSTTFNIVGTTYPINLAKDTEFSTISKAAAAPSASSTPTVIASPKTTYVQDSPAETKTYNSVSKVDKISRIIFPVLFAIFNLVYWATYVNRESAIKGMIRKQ
Sequence of GABA A receptor alpha-3/beta-2/gamma-2 (P63138 whole entry): as the sequence (P63138 whole entry) above
In test [15] the test system is Mus musculus. Kind of test: Antianxiety activity was tested in mice at dose of 30 mg/kg using light/dark box test. The test is classed as functional.
For test [16], the system named is Mus musculus. The experiment in a line: Antianxiety activity was tested in mice at dose of 10 mg/kg using light/dark box test. The test is classed as functional.
Test [17] relates to Mus musculus. The experiment in a line: Percent anticonvulsant activity against PTZ induced attack in mice at dose of 30 mg/kg. The test is classed as functional.
The subject of test [18] is Mus musculus. The experiment in a line: Antianxiety activity was tested in mice at dose of 30 mg/kg in light. Format: functional.
The test system of test [19] is Mus musculus. Kind of test: Synergic sedative effect was tested in mice using the Hole Board test at peroral dose of 30 mg/kg, value was expressed in plane. Format: functional. The conditions noted are these: route oral.
Test [20] has as its system Mus musculus. The experiment in a line: Synergic sedative effect was tested in mice using the Hole Board test at peroral dose of 30 mg/kg, value was expressed in holes. The conditions noted are these: route oral. Format: functional.
Test [21] has as its system Mus musculus. Kind of test: Antianxiety activity was tested in mice at peroral dose of 0.3 mg/kg in light. The test is classed as functional. The conditions noted are these: route oral.
Test [22] has as its system Mus musculus. The experiment in a line: Muscle relaxant effect in mice at peroral dose of 1 mg/kg using rotarod test, value was expressed as no. of falls in 30 seconds. The test is classed as functional. The conditions noted are these: route oral.
Test [23] has as its system Mus musculus. Kind of test: Antianxiety activity was tested in mice at peroral dose of 1 mg/kg in light. Format: functional. The conditions noted are these: route oral.
The subject of test [24] is Mus musculus. The experiment in a line: Antianxiety activity was tested in mice at peroral dose of 1 mg/kg using light/dark box test. The test is classed as functional. The conditions noted are these: route oral.
Test [25] concerns Mus musculus. The experiment in a line: Antianxiety activity was tested in mice at peroral dose of 0.3 mg/kg using light/dark box test. The conditions noted are these: route oral. Format: functional.
In test [26] the test system is Mus musculus. The experiment in a line: Muscle relaxant effect in mice at peroral dose of 0.3 mg/kg using rotarod test, value was expressed as no. of falls in 30 seconds. Format: functional. The conditions noted are these: route oral.
Test [27] concerns Mus musculus. The experiment in a line: Muscle relaxant effect in mice at dose of 3 mg/kg using rotarod test, value was expressed as no. of falls in 30 seconds. The test is classed as functional.
For test [28], the system named is Mus musculus. The experiment in a line: Percent anticonvulsant activity against PTZ induced attack in mice at dose of 3 mg/kg. Format: functional.
Test [29] has as its system Mus musculus. The experiment in a line: Synergic sedative effect was tested in mice using the Hole Board test at peroral dose of 3 mg/kg, value was expressed in plane. Format: functional. The conditions noted are these: route oral.
Test [30] has as its system Mus musculus. The experiment in a line: Synergic sedative effect was tested in mice using the Hole Board test at peroral dose of 3 mg/kg, value was expressed in holes. Format: functional. The conditions noted are these: route oral.

Sequence of GABA A receptor alpha-5/beta-3/gamma-2 (P18508 whole entry): as the sequence (P18508 whole entry) above
Sequence of GABA A receptor alpha-5/beta-3/gamma-2 (P19969 whole entry): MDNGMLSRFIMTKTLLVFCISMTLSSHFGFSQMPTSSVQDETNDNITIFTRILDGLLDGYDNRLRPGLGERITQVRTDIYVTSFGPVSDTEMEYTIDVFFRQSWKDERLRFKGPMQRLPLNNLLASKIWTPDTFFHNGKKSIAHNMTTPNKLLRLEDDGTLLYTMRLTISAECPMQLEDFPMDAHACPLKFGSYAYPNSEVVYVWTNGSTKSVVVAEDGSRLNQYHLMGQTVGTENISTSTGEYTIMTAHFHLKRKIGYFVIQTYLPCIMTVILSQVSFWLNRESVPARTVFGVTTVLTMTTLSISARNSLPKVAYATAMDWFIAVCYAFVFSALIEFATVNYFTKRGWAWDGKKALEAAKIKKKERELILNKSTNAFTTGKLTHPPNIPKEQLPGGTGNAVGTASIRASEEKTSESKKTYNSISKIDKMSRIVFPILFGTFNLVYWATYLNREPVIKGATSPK
Sequence of GABA A receptor alpha-5/beta-3/gamma-2 (P63079 whole entry): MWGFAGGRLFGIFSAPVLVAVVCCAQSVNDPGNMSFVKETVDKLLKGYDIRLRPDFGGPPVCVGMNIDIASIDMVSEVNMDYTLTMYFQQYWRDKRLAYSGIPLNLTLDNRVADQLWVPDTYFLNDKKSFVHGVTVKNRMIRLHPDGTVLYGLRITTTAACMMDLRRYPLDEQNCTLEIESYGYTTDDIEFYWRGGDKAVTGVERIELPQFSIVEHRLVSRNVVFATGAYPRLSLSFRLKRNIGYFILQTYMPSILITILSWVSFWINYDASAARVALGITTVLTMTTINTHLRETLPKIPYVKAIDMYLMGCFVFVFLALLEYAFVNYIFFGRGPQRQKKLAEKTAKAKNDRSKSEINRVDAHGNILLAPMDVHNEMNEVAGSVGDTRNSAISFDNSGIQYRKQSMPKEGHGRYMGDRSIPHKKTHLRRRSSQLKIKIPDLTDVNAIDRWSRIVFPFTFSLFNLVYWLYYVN

With `Cc1ccc(-c2nc3ccc(C)cn3c2CC(=O)N(C)C)cc1.Oc1c(-c2ccsc2)cnc2c(-c3ccccn3)cnn12`, the No. of counts is 68 and 28.7 in the test on Mus musculus [1] (10 mg/kg); 25.8 and 9.38 with Mus musculus [3] (10 mg/kg). Besides, the Activity with Mus musculus [2] is recorded as 90%. In the test with Mus musculus [4], the No. of falls is given as 1.1.

Consider `Cc1cccc(-c2cnn3c(O)c(-c4ccsc4)cnc23)c1`, for which the inhibition (usually the drop in the measured response relative to a control, in per cent) in test [5] came to 97%. In addition, the Ki (in general, a dissociation constant, usually derived from enzyme kinetics or from competition with a known ligand) in test [6] turned out to be 26 nM. Further, in test [7], the Ratio came out at 2.

In [5], `COc1cccc(-c2cnn3c(O)c(-c4ccsc4)cnc23)c1` gave an inhibition of 92%. Further, the Ki in test [6] turned out to be 42.2 nM; in test [8], 827 nM; in test [9], 737 nM; in test [10], 43 nM. Besides, in test [7], the Ratio amounted to 1.25.

On to `Oc1c(-c2ccsc2)cnc2c(-c3ccsc3)cnn12`, for which the values for the Time in the test on Mus musculus [11] and in the test with Mus musculus [18] were 94.9 s and 72.3 s, respectively. Further, the Ki in test [12] was 200 nM; in [14], 196 nM; in test [6], 16 nM; in test [9], 223 nM; in [10], 23 nM. Also, the inhibition in [5] came to 100%. Moreover, the No. of counts came to 12.2 in the test on Mus musculus [1] and 52.7 in the test on Mus musculus [3]. For the same compound, the Activity in the test on Mus musculus [2] is given as 36.4%; in the test on Mus musculus [17], 9.1%. For the same compound, the No. of falls with Mus musculus [13] was 0.3; with Mus musculus [4] it was 0. The No. of crosses with Mus musculus [15] is 11.8; in the test with Mus musculus [16], 19.7. Also, the Ratio in test [7] was found to be 1.3.

In turn, `Oc1c(-c2ccsc2)cnc2c(-c3ccc4ccccc4c3)cnn12` yielded an inhibition in [5] of 30%.

As for `Oc1c(-c2ccsc2)cnc2c(-c3cccc(Br)c3)cnn12`, the Ki in [12] was determined as 291 nM; in [14] it was 111 nM; in test [6] it was 8.8 nM; in [9], 22 nM; in [10] it was 10 nM. For the same compound, the inhibition in [5] worked out at 87%. Besides, the Ratio in test [7] amounted to 1.72.

As to `Oc1c(-c2ccsc2)cnc2c(-c3ccc(F)cc3)cnn12`, the inhibition in [5] came to 99%. Moreover, the Ki in test [6] was determined as 31 nM. For the same compound, in test [7], the Ratio was determined as 0.9.

For `Oc1c(-c2ccsc2)cnc2c(-c3ccccn3)cnn12`, the Time in the test with Mus musculus [11] is reported as 90.6 s. Further, the Ki in [12] was 927 nM; in test [6] it was 3.9 nM; in test [9], 740 nM; in test [10], 7 nM. This compound displayed an inhibition in test [5] of 98%. Besides, the No. of counts in the test with Mus musculus [1] worked out at 96.6; in the test with Mus musculus [19], 110.4; in the test with Mus musculus [3], 55.9; with Mus musculus [20], 50.9. Moreover, the Activity with Mus musculus [2] is recorded as 19%; in the test on Mus musculus [17] it was 10%. The No. of falls in the test with Mus musculus [13] and in the test with Mus musculus [4] was 0.3 throughout. This compound also gave a No. of crosses in the test with Mus musculus [16] of 19.6. In test [7], the Ratio stood at 1.1.

As to `CN1C(=O)CN=C(c2ccccc2)c2cc(Cl)ccc21` [DIAZEPAM], the figures for the Time in the test on Mus musculus [21] and in the test with Mus musculus [23] were 85 s and 117.5 s, respectively. Moreover, the No. of falls is recorded as 0.7 with Mus musculus [22] and 0.5 with Mus musculus [26]. For the same compound, the No. of crosses is on record as 21.5 with Mus musculus [24] and 22 in the test with Mus musculus [25].

`Oc1c(-c2ccsc2)cnc2c(Cc3ccccc3)cnn12` had an inhibition in [5] of 55%.

As for `Oc1c(-c2ccsc2)cnc2c(-c3cccc4ccccc34)cnn12`, the Ki is above 10000 nM in [12], 40 nM in [6], 156 nM in [9] and 47 nM in test [10]. This compound also had an inhibition in test [5] of 92%. Moreover, the Ratio in test [7] came to 1.02.

The compound `CN1C(=O)CN=C(c2ccccc2)c2cc(Cl)ccc21.Oc1c(-c2ccsc2)cnc2c(-c3ccccn3)cnn12` gave a Time in the test with Mus musculus [11] of 120.9 s. The No. of counts with Mus musculus [1] was determined as 68; in the test with Mus musculus [3] it was 25.8. The Activity with Mus musculus [2] was 90%. Also, the No. of crosses with Mus musculus [16] amounted to 26.2. In addition, in the test on Mus musculus [4], the No. of falls worked out at 0.5.

For `Oc1c(-c2ccsc2)cnc2c(-c3cccnc3)cnn12`, the Ki in test [12] was 315 nM; in test [6] it was 30 nM; in test [9], 210 nM; in test [10], 25 nM. The inhibition in test [5] amounted to 100%. Also, the Ratio in [7] was found to be 1.51.

Take `Oc1c(-c2ccsc2)cnc2c(-c3cccc(F)c3)cnn12`: the inhibition in test [5] came out at 92%. Also, the Ki in [6] was 73 nM. Besides, in test [7], the Ratio stood at 1.2.

`Oc1c(-c2ccsc2)cnc2c(-c3cccc(C(F)(F)F)c3)cnn12`: the Time with Mus musculus [11] was 69.4 s; in the test with Mus musculus [18], 77.3 s. Further, the Ki was determined as 540 nM in test [12]; 89 nM in test [14]; 5.8 nM in test [6]; 207 nM in test [9]; 10 nM in test [10]. In addition, in [5], the inhibition amounted to 96%. The results for the No. of counts with Mus musculus [1] and in the test with Mus musculus [3] were 139.6 and 60.7, respectively. For the same compound, the Activity in the test on Mus musculus [2] worked out at 29.4%; in the test with Mus musculus [17], 0%. Also, the figures for the No. of falls with Mus musculus [13] and with Mus musculus [4] were 0.2 and 0.1, respectively. Besides, the No. of crosses with Mus musculus [15] worked out at 12.7; with Mus musculus [16], 17.1. Moreover, the Ratio in test [7] came to 2.

`Cc1ccc(-c2nc3ccc(C)cn3c2CC(=O)N(C)C)cc1` [ZOLPIDEM]: the No. of counts in the test with Mus musculus [1] stood at 54.4; with Mus musculus [3], 26.3; in the test with Mus musculus [29], 84.7; in the test on Mus musculus [30], 45. Further, the Activity turned out to be 90% with Mus musculus [2] and 70% in the test with Mus musculus [28]. Further, the No. of falls with Mus musculus [27] was found to be 0.2; in the test with Mus musculus [4] it was 0.8.

In the case of `Oc1c(-c2ccsc2)cnc2c(-c3ccccc3)cnn12`, in [5], the inhibition came out at 94%. In test [6], this compound showed a Ki of 111 nM. The Ratio in [7] came out at 1.71.
